The record followed here is publication PMC5473904, “Epigenetic and antitumor effects of platinum(IV)-octanoato conjugates” (Scientific Reports, 2017).

In experiment [1] the test system is A2780 human ovarian carcinoma cells. Nature of the experiment: MTT cytotoxicity, 72 h. The experiment is classed as cell-based. The settings on record: Homo sapiens, A2780; MTT, 72 h, octanoic acid.
The test system of experiment [2] is A2780cisR human ovarian carcinoma cells. Nature of the experiment: MTT cytotoxicity, 72 h. The experiment is classed as cell-based. Here is the method:
(§1) Cytotoxic activity of the compounds tested in the present work was screened on the panel of malignant and nonmalignant cell lines using the colorimetric MTT assay and 72 h of drug incubation period.
(§2) Cell death was evaluated using a system based on the tetrazolium compound MTT [3-(4,5-dimethyl-2-thiazolyl)-2,5-diphenyl-2H-tetrazolium bromide]. The cells were seeded in 96-well tissue culture plates at a density of 10^4 A2780cisR, LNCaP, HSF cells/well, 3 × 10^3 CHO-K1 or 4 × 10^3 MCF7, HCT-116 and MRC5 pd30 cells/well in 100 μL of medium. After overnight incubation (16 h), the cells were treated with the compounds in a final volume of 200 μL/well. After additional 72 h, 10 μL of a freshly diluted MTT solution (2.5 mg mL^−1) was added to each well, and the plate was incubated at 37 °C in a humidified 5% CO2 atmosphere for 4 h. At the end of the incubation period, the medium was removed, and the formazan product was dissolved in 100 μL of DMSO. The cell viability was evaluated by measurement of the absorbance at 570 nm, using an Absorbance Reader SUNRISE TECAN SCHOELLER. IC50 values were calculated from curves constructed by plotting cell survival (%) versus drug concentration (μM). All experiments were made in triplicate. The reading values were converted to the percentage of control (% cell survival). Cytotoxic effects were expressed as IC50.

Experiment [3] deals with CHO-K1 Chinese hamster ovary cells. As to the kind of experiment: MTT cytotoxicity, 72 h. As to conditions: Cricetulus griseus, CHO-K1, octanoic acid. The class given is cell-based. The procedure:
as §1, §2

The test system of experiment [4] is HCT-116 human colorectal carcinoma cells. Nature of the experiment: MTT cytotoxicity, 72 h. As to conditions: Homo sapiens, HCT-116; MTT, 72 h, octanoic acid. The experiment is classed as cell-based. Here is the method:
as §1, §2

Experiment [5] concerns HSF human primary skin fibroblasts. Nature of the experiment: MTT cytotoxicity, 72 h. The settings on record: Homo sapiens, Skin fibroblast, octanoic acid. The class given is cell-based. Here is the method: as §1, §2
Experiment [6] concerns LNCaP human prostate adenocarcinoma cells. As to the kind of experiment: MTT cytotoxicity, 72 h. As to conditions: Homo sapiens, LNCaP, octanoic acid. The class given is cell-based. Here is the method:
as §1, §2

Experiment [7] concerns MCF-7 human breast cancer cells. Nature of the experiment: MTT cytotoxicity, 72 h. The class given is cell-based. The settings on record: octanoic acid. Here is the method: as §1, §2
For experiment [8], the system named is MRC-5 (PD30) human fetal lung fibroblasts. As to the kind of experiment: MTT cytotoxicity, 72 h. The experiment is classed as cell-based. As to conditions: Homo sapiens, MRC5, octanoic acid. Here is the method:
as §1, §2

The subject of experiment [9] is PNT1a. Nature of the experiment: MTT cytotoxicity, 72 h. The experiment is classed as cell-based. As to conditions: Homo sapiens, PNT1A, octanoic acid.
Experiment [10] concerns HDAC enzymes in HCT-116 cells. As to the kind of experiment: HDAC fluorimetric cellular activity assay. The experiment is classed as cell-based, human. As to conditions: 1 mM (1000-fold higher concentration). The procedure: These epigenetic processes consist in downregulation of HDACs and yet other biochemical processes triggered by VPA released in cells by the reduction of the Pt(IV) prodrug. Moreover, it has also been shown[15] that non-branched MCFAs may act as HDAC inhibitors. […] HDAC activity was analyzed in HCT-116 cells and confirmed by an independent set of experiments on A2780 cells (data not shown) by using a commercial HDAC fluorimetric cellular activity kit as described in the section Materials and methods.
Figure 3 Activity of HDAC enzymes in HCT-116 cells treated with the compounds tested in the present work; their concentration was 1 µM except the concentration of free OA, which was 1 mM. […] The data represent a mean from three independent experiments, each performed in quadruplicate. The error bars are the SDs.
The activity of HDAC enzymes was analyzed in HCT-116 cells treated with compounds tested in the present work (1 µM). […] The activity of HDAC was analyzed using the HDAC fluorimetric cellular activity assay kit (Enzo Life Sciences; Farmingdale, NY) in the whole cells according to manufacturer’s instructions. […] The plates were scanned on a fluorescence reader Infinite 200 (TECAN) (360 nm excitation, 460 nm emission).

Experiment [11] has as its system DNA methylation in HCT-116 cells. Nature of the experiment: DNA methylation analysis (Imprint methylated DNA quantification kit). The class given is cell-based, human. As to conditions: HCT-116, free OA at sufficiently high (milimolar) concentration. Here is the method: Human colon adenocarcinoma cells HCT-116 were chosen as the model cellular system suitable for DNA methylation analysis because: (i) this human colorectal cancer cell line has been used as a prototypic model for analyses of the genetic basis of cancer, and the role of epigenetic changes in tumorigenesis; (ii) they have a propensity to both global DNA hypomethylation and to silence genes through promoter focal hypermethylation, [21]. HCT-116 cells were treated with the compounds at the concentrations indicated in Fig. 4A for 24 or 72 h and DNA was isolated for the complete methylation analysis as described in the experimental section. Decitabine (5-aza-2′-deoxycytidine), a hypomethylating agent which hypomethylates DNA by inhibiting DNMT, was used in these experiments as a […]. The IC50 values found for this agent in HCT-116 cells (the drug-treatment period was 72 h) was (7.5 ± 0.3) µM (Table 1).
Figure 4 Analysis of DNA methylation. (A) DNA was isolated from HCT-116 cells after the exposure to the agents at the concentrations indicated in the graph for 24 or 72 h. The levels of DNA methylation in the control was taken as 100%. The bars represent mean values from three independent experiments each performed in octuplicate. The error bars are the SDs. (B) DNMT activity in colon carcinoma cells HCT-116 treated for 24 h with the compounds tested in the present work. The DNMT activity in the control, untreated cells was taken as 100%. Error bars are the SDs and the stars at the top of bars denote a significant difference from the control with (*p < 0.05; **p < […]), calculated using […] student’s t-test. The bars represent mean values from three independent experiments, each performed in quadruplicate.
Human colon carcinoma cells (HCT-116) were seeded at the density 1.5 × 10^6 cells/dish. […] The DNA content in each sample was determined by UV spectrophotometry. DNA (200 ng) from the samples was loaded to the Imprint methylated DNA quantification kit (Sigma-Aldrich, USA). The level of methylated DNA was proportional to the absorbance measured at 450 nm.

Experiment [12] deals with DNMT enzymes in HCT-116 cells. Nature of the experiment: DNMT activity in nuclear extracts of treated cells. As to conditions: HCT-116, 1 (unit uncertain), 24 h. On the set-up: unit of the concentration uncertain. The class given is cell-based, human. The procedure:
In these experiments, the total activity of DNMT enzymes was determined in nuclear extracts prepared from HCT-116 cells which were treated with the platinum compounds, free OA or decitabine for 24 h (Fig. 4B).
Human colon carcinoma cells (HCT-116) were seeded in 100 mm culture dishes at the density 1.5 × 10^6 cells/dish. Cells were harvested after 24 h of incubation with the compounds tested in the present work (1 µM). Nuclear extracts from the pellets were separated using EpiQuik Nuclear extraction kit I (Epigentek, NY) according to manufacturer’s instructions. Quantification of nuclear proteins was analyzed with the standard Bradford assay. The activity of DNMT enzymes was analyzed using the EpiQuik DNMT activity/inhibition assay Ultra kit (Epigentek, NY), according to the manufacturer´s protocol. Briefly, 10 µg of total nuclear protein was analyzed for its DNMT activity. The reaction time with a universal DNMT substrate stably coated onto microplate wells was 120 min at 37 °C. The final signal at the end of the ELISA reaction was detected at 450 nm (reference 620 nm). DNMT activity was normalized to controls and expressed in the percent or absolute values as OD h^−1 mg^−1, calculated as described in the manufacturer’s manual.

On to `CCCCCCCC(=O)O` [OA, octanoic acid, reference compound], for which the concentration for half-maximal inhibition (IC50) came out at 1.46 ± 0.1 mM in experiment [1]; 0.76 ± 0.02 mM in [2] (Homo sapiens, A2780cisR, MTT, 72 h, octanoic acid); 5.9 ± 0.7 mM in experiment [3]; 3.84 ± 0.39 mM in experiment [4]; 9.74 ± 0.03 mM in [5]; 0.71 ± 0.12 mM in [6]. Besides, the half-maximal inhibitory concentration (IC50) in experiment [7] (Homo sapiens, MCF7, 72 h) amounted to 16 mM; in experiment [7], 16.2 ± 0.56 mM; in experiment [8], 7.67 ± 0.61 mM; in experiment [9] it was 2.07 ± 0.03 mM. In addition, the “RF, resistance factor” value in experiment [2] (IC50 (resistant, A2780cisR)/IC50 (sensitive, A2780)) is on record as 0.5. In addition, the “Efficiency to inhibit HDAC activity” value in experiment [10] is on record as “moderate inhibitory effect”. Also, in experiment [11], the “Change of DNA methylation” value is “capable of inducing DNA hypermethylation”. Also, in [12], the “Activity of DNMT enzymes” value was “enhanced activity of DNMT enzymes”.
